Molecules are shown by their SMILES.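 A five-concentration, 48-hour dose response in 96-well plates underlies each endpoint, interpolated linearly between surrounding concentrations. At the TGI there is no net growth.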 Where only a bound is given, the exact number is not on record here.

The first test deals with SK-MEL-5 melanoma. The test can be described thus: NCI tumour cell line growth inhibition, 48 h.
For the molecule `COC(=O)/C=C(/C)n1nc2ccccc2n1`, the TGI was over 100 µM.
Still for that read-out and setting: the same measure for `O=C1c2cc(Cl)ccc2-n2cnnc2C2CSCN12` (stereo not given): over 100 µM.
Same read-out and setting: the same measure for `Cc1cc2c(cc1-c1cc3c(cc1C)C(C(C)C)=C(O)C(=O)/C3=C\Nc1c3ccccc3nc3ccccc13)/C(=C/Nc1c3ccccc3nc3ccccc13)C(=O)C(O)=C2C(C)C`: 15.4 µM.

A further test relates to SR leukemia. Nature of the test: NCI tumour cell line growth inhibition, 48 h.
As for `Cn1c2ccccc2n2c(N=O)c(-c3ccccc3)nc12`, the TGI was over 100 µM.
Still for that read-out and setting: for `COC(=O)/C=C(/C)n1nc2ccccc2n1` the value was over 100 µM; for `O=C1c2cc(Cl)ccc2-n2cnnc2C2CSCN12` (stereo not given), over 100 µM.
On the same count and under the same terms, the same measure for `Cc1cc2c(cc1-c1cc3c(cc1C)C(C(C)C)=C(O)C(=O)/C3=C\Nc1c3ccccc3nc3ccccc13)/C(=C/Nc1c3ccccc3nc3ccccc13)C(=O)C(O)=C2C(C)C`: 18.4 µM.

A further test relates to MDA-MB-435. Nature of the test: NCI tumour cell line growth inhibition, 48 h.
`Cn1c2ccccc2n2c(N=O)c(-c3ccccc3)nc12` had a TGI of over 100 µM.
Still for that read-out and setting: the same measure for `COC(=O)/C=C(/C)n1nc2ccccc2n1`: over 100 µM; for `O=C1c2cc(Cl)ccc2-n2cnnc2C2CSCN12` (stereo not given): over 100 µM.
On the same count and under the same terms, for `Cc1cc2c(cc1-c1cc3c(cc1C)C(C(C)C)=C(O)C(=O)/C3=C\Nc1c3ccccc3nc3ccccc13)/C(=C/Nc1c3ccccc3nc3ccccc13)C(=O)C(O)=C2C(C)C` the value was 17.1 µM.

Another test has as its system T-47D breast. Nature of the test: NCI tumour cell line growth inhibition, 48 h.
In turn, `Cn1c2ccccc2n2c(N=O)c(-c3ccccc3)nc12` had a TGI of over 100 µM.
Still for that read-out and setting: the same measure for `COC(=O)/C=C(/C)n1nc2ccccc2n1`: over 100 µM; for `O=C1c2cc(Cl)ccc2-n2cnnc2C2CSCN12` (stereo not given): over 100 µM; for `Cc1cc2c(cc1-c1cc3c(cc1C)C(C(C)C)=C(O)C(=O)/C3=C\Nc1c3ccccc3nc3ccccc13)/C(=C/Nc1c3ccccc3nc3ccccc13)C(=O)C(O)=C2C(C)C`: 26.8 µM.

The subject of a further test is COLO 205 colon. Nature of the test: NCI tumour cell line growth inhibition, 48 h.
As for `Cn1c2ccccc2n2c(N=O)c(-c3ccccc3)nc12`, the TGI was found to be 22.6 µM.
Regarding `COC(=O)/C=C(/C)n1nc2ccccc2n1`, the TGI was over 100 µM.
As to `O=C1c2cc(Cl)ccc2-n2cnnc2C2CSCN12` (stereo not given), the TGI is over 100 µM.
Still for that read-out and setting: the same measure for `Cc1cc2c(cc1-c1cc3c(cc1C)C(C(C)C)=C(O)C(=O)/C3=C\Nc1c3ccccc3nc3ccccc13)/C(=C/Nc1c3ccccc3nc3ccccc13)C(=O)C(O)=C2C(C)C`: 6.72 µM.

For a further test, the system named is OVCAR-5 ovarian. The test can be described thus: NCI tumour cell line growth inhibition, 48 h.
In turn, `Cn1c2ccccc2n2c(N=O)c(-c3ccccc3)nc12` returned a TGI of over 100 µM.
`COC(=O)/C=C(/C)n1nc2ccccc2n1`: the TGI is over 100 µM.
The same measure, in the same setting: the same measure for `O=C1c2cc(Cl)ccc2-n2cnnc2C2CSCN12` (stereo not given): over 100 µM; for `Cc1cc2c(cc1-c1cc3c(cc1C)C(C(C)C)=C(O)C(=O)/C3=C\Nc1c3ccccc3nc3ccccc13)/C(=C/Nc1c3ccccc3nc3ccccc13)C(=O)C(O)=C2C(C)C`: 16.7 µM.

The test system of another test is CAKI-1 renal. Nature of the test: NCI tumour cell line growth inhibition, 48 h.
Regarding `Cn1c2ccccc2n2c(N=O)c(-c3ccccc3)nc12`, the TGI is over 100 µM.
On the same count and under the same terms, the same measure for `COC(=O)/C=C(/C)n1nc2ccccc2n1`: over 100 µM; for `O=C1c2cc(Cl)ccc2-n2cnnc2C2CSCN12` (stereo not given): 46 µM.

The test system of the next test is NCI/ADR-RES ovarian. The test can be described thus: NCI tumour cell line growth inhibition, 48 h.
With `Cn1c2ccccc2n2c(N=O)c(-c3ccccc3)nc12`, the TGI is over 100 µM.
Same read-out and setting: for `COC(=O)/C=C(/C)n1nc2ccccc2n1` the value was over 100 µM; for `O=C1c2cc(Cl)ccc2-n2cnnc2C2CSCN12` (stereo not given), over 100 µM.
The same measure, in the same setting: for `Cc1cc2c(cc1-c1cc3c(cc1C)C(C(C)C)=C(O)C(=O)/C3=C\Nc1c3ccccc3nc3ccccc13)/C(=C/Nc1c3ccccc3nc3ccccc13)C(=O)C(O)=C2C(C)C` the value was 12.9 µM.

In the next test the test system is SNB-75 CNS. Nature of the test: NCI tumour cell line growth inhibition, 48 h.
Regarding `Cn1c2ccccc2n2c(N=O)c(-c3ccccc3)nc12`, the TGI stood at 49.8 µM.
On the same count and under the same terms, for `COC(=O)/C=C(/C)n1nc2ccccc2n1` the value was over 100 µM; for `O=C1c2cc(Cl)ccc2-n2cnnc2C2CSCN12` (stereo not given), over 100 µM; for `Cc1cc2c(cc1-c1cc3c(cc1C)C(C(C)C)=C(O)C(=O)/C3=C\Nc1c3ccccc3nc3ccccc13)/C(=C/Nc1c3ccccc3nc3ccccc13)C(=O)C(O)=C2C(C)C`, 13 µM.

In another test the test system is UACC-257 melanoma. The test can be described thus: NCI tumour cell line growth inhibition, 48 h.
As for `Cn1c2ccccc2n2c(N=O)c(-c3ccccc3)nc12`, the TGI was over 100 µM.
On to `COC(=O)/C=C(/C)n1nc2ccccc2n1`, for which the TGI was over 100 µM.
Still for that read-out and setting: for `O=C1c2cc(Cl)ccc2-n2cnnc2C2CSCN12` (stereo not given) the value was over 100 µM.
Same read-out and setting: for `Cc1cc2c(cc1-c1cc3c(cc1C)C(C(C)C)=C(O)C(=O)/C3=C\Nc1c3ccccc3nc3ccccc13)/C(=C/Nc1c3ccccc3nc3ccccc13)C(=O)C(O)=C2C(C)C` the value was 16.6 µM.

The next test concerns OVCAR-8 ovarian. Nature of the test: NCI tumour cell line growth inhibition, 48 h.
The molecule `Cn1c2ccccc2n2c(N=O)c(-c3ccccc3)nc12` showed a TGI of over 100 µM.
On the same count and under the same terms, the same measure for `COC(=O)/C=C(/C)n1nc2ccccc2n1`: over 100 µM; for `O=C1c2cc(Cl)ccc2-n2cnnc2C2CSCN12` (stereo not given): over 100 µM; for `Cc1cc2c(cc1-c1cc3c(cc1C)C(C(C)C)=C(O)C(=O)/C3=C\Nc1c3ccccc3nc3ccccc13)/C(=C/Nc1c3ccccc3nc3ccccc13)C(=O)C(O)=C2C(C)C`: 12.8 µM.

The test system of another test is ACHN renal. Nature of the test: NCI tumour cell line growth inhibition, 48 h.
Molecule `Cn1c2ccccc2n2c(N=O)c(-c3ccccc3)nc12` returned a TGI of over 100 µM.
The same measure, in the same setting: for `COC(=O)/C=C(/C)n1nc2ccccc2n1` the value was over 100 µM; for `O=C1c2cc(Cl)ccc2-n2cnnc2C2CSCN12` (stereo not given), over 100 µM; for `Cc1cc2c(cc1-c1cc3c(cc1C)C(C(C)C)=C(O)C(=O)/C3=C\Nc1c3ccccc3nc3ccccc13)/C(=C/Nc1c3ccccc3nc3ccccc13)C(=O)C(O)=C2C(C)C`, 5.91 µM.

The next test relates to MOLT-4 leukemia. Nature of the test: NCI tumour cell line growth inhibition, 48 h.
For the molecule `Cn1c2ccccc2n2c(N=O)c(-c3ccccc3)nc12`, the TGI is over 100 µM.
On the same count and under the same terms, the same measure for `COC(=O)/C=C(/C)n1nc2ccccc2n1`: over 100 µM.
Same read-out and setting: the same measure for `O=C1c2cc(Cl)ccc2-n2cnnc2C2CSCN12` (stereo not given): over 100 µM.
On the same count and under the same terms, for `Cc1cc2c(cc1-c1cc3c(cc1C)C(C(C)C)=C(O)C(=O)/C3=C\Nc1c3ccccc3nc3ccccc13)/C(=C/Nc1c3ccccc3nc3ccccc13)C(=O)C(O)=C2C(C)C` the value was 16 µM.

Another test has as its system SF-539 CNS. Nature of the test: NCI tumour cell line growth inhibition, 48 h.
The molecule `Cc1cc2c(cc1-c1cc3c(cc1C)C(C(C)C)=C(O)C(=O)/C3=C\Nc1c3ccccc3nc3ccccc13)/C(=C/Nc1c3ccccc3nc3ccccc13)C(=O)C(O)=C2C(C)C` came in with a TGI of 16.1 µM.

A further test concerns A498 renal. Nature of the test: NCI tumour cell line growth inhibition, 48 h.
`Cn1c2ccccc2n2c(N=O)c(-c3ccccc3)nc12`: the TGI was over 100 µM.
Still for that read-out and setting: the same measure for `COC(=O)/C=C(/C)n1nc2ccccc2n1`: over 100 µM; for `O=C1c2cc(Cl)ccc2-n2cnnc2C2CSCN12` (stereo not given): over 100 µM; for `Cc1cc2c(cc1-c1cc3c(cc1C)C(C(C)C)=C(O)C(=O)/C3=C\Nc1c3ccccc3nc3ccccc13)/C(=C/Nc1c3ccccc3nc3ccccc13)C(=O)C(O)=C2C(C)C`: 21.9 µM.

These data come from PubChem BioAssay (NCI).
